According to ChEMBL document CHEMBL5352436, “Triterpenoid pyrazines and pyridines - Synthesis, cytotoxicity, mechanism of action, preparation of prodrugs” (Eur J Med Chem, 2022):
The source made the active and inactive calls. The rule behind the calls is not given here.

Legend:
HeLa = assay: Antitumor activity in human HeLa cells cultured as spheroids assessed as inhibition of spheroid opening at 1 uM incubated for 3 days; format: functional, cell-based; settings: time 3.0 day
[1] = Apparent permeability of the compound in MDCK-MDR1 cells at 10 uM incubated for 1 hr by RF-MS analysis; format: ADME, cell-based, Canis lupus familiaris; settings: dog
[2] = Stability in human liver microsomes assessed as compound remaining at 2 uM measured at 60 mins in presence of NADPH by RF-MS analysis; format: ADME, Microsome; settings: read-out: Stability
[3] = Efflux ratio of apparent permeability across basolateral to apical side over apical to basolateral side in MDCK-MDR1 cells; format: ADME, cell-based, Canis lupus familiaris; settings: dog
HCT-116 [4] = assay: Antitumor activity in human HCT-116 cells cultured as spheroids assessed as inhibition of cell growth at 10 uM incubated for 3 days; format: functional; design: scale not given: the % may be the effect or the level left; settings: time 3 day
[5] = Cytotoxicity against human MRC5 cells assessed as reduction in cell viability incubated for 72 hrs by MTS assay; format: toxicity, cell-based
[6] = Chemical stability in PBS buffer at pH 7.4 assessed as compound remaining measured at 120 mins by RF-MS analysis; format: physicochemical; settings: read-out: Stability
[7] = Cytotoxicity against human HCT116-p53-null cells assessed as reduction in cell viability incubated for 72 hrs by MTS assay; format: functional, cell-based
CCRF-CEM [8] = assay: Cytotoxicity against human CCRF-CEM cells assessed as reduction in cell viability incubated for 72 hrs by MTS assay; format: functional, cell-based
U2OS = assay: Cytotoxicity against human U2OS cells assessed as reduction in cell viability incubated for 72 hrs by MTS assay; format: functional, cell-based
[9] = Plasma protein binding in human at 10 uM by rapid equilibrium dialysis based RF-MS analysis; format: ADME, cell-free; settings: read-out: PB (converted)
CEM-DNR = assay: Cytotoxicity against human CEM-DNR cells assessed as reduction in cell viability incubated for 72 hrs by MTS assay; format: functional, cell-based
[10] = Stability in human plasma assessed as compound remaining at 2 uM measured at 120 mins by RF-MS analysis; format: ADME, cell-free; settings: read-out: Stability
[11] = Stability in human plasma assessed as compound remaining at 2 uM measured at 15 mins by RF-MS analysis; format: ADME, cell-free; settings: read-out: Stability
[12] = Stability in human plasma assessed as compound remaining at 2 uM measured at 60 mins by RF-MS analysis; format: ADME, cell-free; settings: read-out: Stability
A549 = assay: Cytotoxicity against human A549 cells assessed as reduction in cell viability incubated for 72 hrs by MTS assay; format: functional, cell-based; settings: A549, 72 h
[13] = Chemical stability in PBS buffer at pH 7.4 assessed as compound remaining measured at 60 mins by RF-MS analysis; format: physicochemical; settings: read-out: Stability
[14] = Stability in human plasma assessed as compound remaining at 2 uM measured at 30 mins by RF-MS analysis; format: ADME, cell-free; settings: read-out: Stability
[15] = Apparent permeability of the compound in MDCK-MDR1 cells assessed as drug recovery at 10 uM incubated for 1 hr by RF-MS analysis; format: ADME, cell-based, Canis lupus familiaris; settings: dog, read-out: Drug recovery
[16] = Cytotoxicity against human BJ cells assessed as reduction in cell viability incubated for 72 hrs by MTS assay; format: toxicity, cell-based
[17] = Chemical stability in PBS buffer at pH 7.4 assessed as compound remaining measured at 15 mins by RF-MS analysis; format: physicochemical; settings: read-out: Stability
K562 = assay: Cytotoxicity against human K562 cells assessed as reduction in cell viability incubated for 72 hrs by MTS assay; format: functional, cell-based; settings: K562, 72 h
[18] = Chemical stability in PBS buffer at pH 7.4 assessed as compound remaining measured at 30 mins by RF-MS analysis; format: physicochemical; settings: read-out: Stability
[19] = Stability in human liver microsomes assessed as compound remaining at 2 uM measured at 15 mins in presence of NADPH by RF-MS analysis; format: ADME, Microsome; settings: read-out: Stability
[20] = Cytotoxicity against human K562-Tax cells assessed as reduction in cell viability incubated for 72 hrs by MTS assay; format: functional, cell-based
[21] = Stability in human liver microsomes assessed as compound remaining at 2 uM measured at 30 mins in presence of NADPH by RF-MS analysis; format: ADME, Microsome; settings: read-out: Stability
HCT-116 [22] = assay: Cytotoxicity against human HCT-116 cells assessed as reduction in cell viability incubated for 72 hrs by MTS assay; format: functional, cell-based; settings: HCT-116, 72 h
CCRF-CEM [23] = assay: Induction of apoptosis in human CCRF-CEM cells assessed as PARP cleavage at 1 to 5 times IC50 incubated for 24 hrs by Western blot analysis; format: functional, cell-based
CCRF-CEM [24] = assay: Induction of apoptosis in human CCRF-CEM cells assessed as accumulation of Bid protein expression at 1 to 5 times IC50 incubated for 24 hrs by Western blot analysis; format: functional, cell-based
CCRF-CEM [25] = assay: Induction of apoptosis in human CCRF-CEM cells assessed as early apoptotic cells at 5 times IC50 incubated for 24 hrs by Annexin V and propidium iodide staining based flow cytometry analysis […]; format: functional
CCRF-CEM [26] = assay: Induction of apoptosis in human CCRF-CEM cells assessed as late apoptotic cells at 1 time IC50 incubated for 24 hrs by Annexin V and propidium iodide staining based flow cytometry analysis (reference value: […]); format: functional
CCRF-CEM [27] = assay: Induction of apoptosis in human CCRF-CEM cells assessed as accumulation of Bax protein expression at 1 to 5 times IC50 incubated for 24 hrs by Western blot analysis; format: functional, cell-based
CCRF-CEM [28] = assay: Induction of apoptosis in human CCRF-CEM cells assessed as decrease in c-Myc expression at 1 to 5 times IC50 incubated for 24 hrs by Western blot analysis; format: functional, cell-based
CCRF-CEM [29] = assay: Induction of apoptosis in human CCRF-CEM cells assessed as necrotic cells at 1 time IC50 incubated for 24 hrs by Annexin V and propidium iodide staining based flow cytometry analysis (reference value: 0.0%); format: functional
CCRF-CEM [30] = assay: Induction of apoptosis in human CCRF-CEM cells assessed as necrotic cells at 5 times IC50 incubated for 24 hrs by Annexin V and propidium iodide staining based flow cytometry analysis […]; format: functional
CCRF-CEM [31] = assay: Induction of apoptosis in human CCRF-CEM cells assessed as increase in Noxa expression at 1 to 5 times IC50 incubated for 24 hrs by Western blot analysis; format: functional, cell-based
CCRF-CEM [32] = assay: Induction of apoptosis in human CCRF-CEM cells assessed as early apoptotic cells at 1 time IC50 incubated for 24 hrs by Annexin V and propidium iodide staining based flow cytometry analysis (reference value: […]); format: functional
CCRF-CEM [33] = assay: Induction of apoptosis in human CCRF-CEM cells assessed as viable cells at 1 time IC50 incubated for 24 hrs by Annexin V and propidium iodide staining based flow cytometry analysis […]; format: functional
CCRF-CEM [34] = assay: Induction of apoptosis in human CCRF-CEM cells assessed as viable cells at 5 times IC50 incubated for 24 hrs by Annexin V and propidium iodide staining based flow cytometry analysis […]; format: functional
CCRF-CEM [35] = assay: Induction of apoptosis in human CCRF-CEM cells assessed as late apoptotic cells at 5 times IC50 incubated for 24 hrs by Annexin V and propidium iodide staining based flow cytometry analysis […]; format: functional

Papp at 1 h, 10 µM [1] [×10⁻⁶ cm/s] | remaining at 1 h, 2 µM [2] [%] | efflux ratio [3] | remaining at 2 h [6] [%] | fraction unbound at 10 µM [9] | remaining at 2 h, 2 µM [10] [%] | remaining at 0.25 h, 2 µM [11] [%] | remaining at 1 h, 2 µM [12] [%] | remaining at 1 h [13] [%] | remaining at 0.5 h, 2 µM [14] [%] | SMILES | IC50 at 72 h [5] [µM] | IC50 [7] [µM] | IC50 (CCRF-CEM [8]) [µM] | IC50 (U2OS) [µM] | IC50 (CEM-DNR) [µM] | IC50 (A549) [µM] | IC50 at 72 h [16] [µM] | IC50 (K562) [µM] | IC50 [20] [µM] | IC50 (HCT-116 [22]) [µM] | further results
0.32 | 66.6 | 3.77 | 83.8 | 0.0015 | 82.3 | 93.9 | 87 | 89.2 | 88.7 | C=C(C=O)[C@@H]1CC[C@]2(C(=O)OCc3cn([C@H]4O[C@H](COC(C)=O)[C@@H](OC(C)=O)[C@H](OC(C)=O)[C@H]4OC(C)=O)nn3)CC[C@]3(C)[C@H](CC[C@@H]4[C@@]5(C)CC[C@H](O)C(C)(C)[C@@H]5CC[C@]43C)[C@@H]12 | 1.7 | 1.7 | 0.6 | 1.7 | 1.6 | 1.8 | 1.8 | 1.4 | 1.6 | 1.6 | Activity (HeLa): Active; Activity (HCT-116 [4]): 100%; recovery at 1 h, 10 µM [15]: 103%; remaining at 0.25 h [17]: 97.1%; remaining at 0.5 h [18]: 92.5%; remaining at 0.25 h, 2 µM [19]: 95.6%; remaining at 0.5 h, 2 µM [21]: 82.7%
1.67 | 97.8 | 7.1 | 92.9 | 0.107 | 87.1 | 98.7 | 88 | 92.1 | 91.2 | C=C(C)[C@@H]1CC[C@]2(C(=O)OCc3cn([C@H]4O[C@H](COC(C)=O)[C@@H](OC(C)=O)[C@H](OC(C)=O)[C@H]4OC(C)=O)nn3)CC[C@]3(C)[C@H](CC[C@@H]4[C@@]5(C)Cc6nccnc6C(C)(C)[C@@H]5CC[C@]43C)[C@@H]12 (stereo in doubt) | > 50 | > 50 | > 50 | > 50 | 49 | > 50 | > 50 | > 50 | > 50 | > 50 | recovery at 1 h, 10 µM [15]: 87.7%; remaining at 0.25 h [17]: 98.9%; remaining at 0.5 h [18]: 99.5%; remaining at 0.25 h, 2 µM [19]: 99.3%; remaining at 0.5 h, 2 µM [21]: 98.3%
– | – | – | – | – | – | – | – | – | – | C=C(C=O)[C@@H]1CC[C@]2(C(=O)OCc3cn([C@H]4O[C@H](CO)[C@@H](O)[C@H](O)[C@H]4O)nn3)CC[C@]3(C)[C@H](CC[C@@H]4[C@@]5(C)Cc6nccnc6C(C)(C)[C@@H]5CC[C@]43C)[C@@H]12 (stereo in doubt) | – | – | – | – | – | – | – | – | – | – | Activity (CCRF-CEM [23]): Active; Activity (CCRF-CEM [24]): Active; Activity (CCRF-CEM [25]): 41.5%; Activity (CCRF-CEM [26]): 3.3%; Activity (CCRF-CEM [27]): Active; Activity (CCRF-CEM [28]): Active; Activity (CCRF-CEM [29]): 5%; Activity (CCRF-CEM [30]): 0.1%; Activity (CCRF-CEM [31]): Active; Activity (CCRF-CEM [32]): 4.9%; Activity (CCRF-CEM [33]): 86.9%; Activity (CCRF-CEM [34]): 0.6%; Activity (CCRF-CEM [35]): 57.7%
– | – | – | – | – | – | – | – | – | – | Cc1oc(=O)oc1COC(=O)[C@]12CC[C@@H](C(C)C)[C@@H]1[C@H]1CC[C@@H]3[C@@]4(C)Cc5nccnc5C(C)(C)[C@@H]4CC[C@@]3(C)[C@]1(C)CC2 | > 50 | 44 | 17 | 40 | 50 | 41 | > 50 | 0.026 | 12 | > 50 | –
